In paper PMC10187093, “Synthesis, in silico modelling, and in vitro biological evaluation of substituted pyrazole derivatives as potential anti-skin cancer, anti-tyrosinase, and antioxidant agents” (Journal of Enzyme Inhibition and Medicinal Chemistry, 2023):
Like-named read-outs stand apart in the source and are kept apart here.

Tests used:
mushroom tyrosinase = target: T1, mushroom tyrosinase (Agaricus bisporus, UniProt C7FF04); test: In vitro mushroom tyrosinase inhibition assay; format: biochemical
T1 construct: purchased Sigma-Aldrich Chemical Company (St. Louis, MO) and MP Biomedicals (Irvine, CA)
Experimental: The anti-tyrosinase potential of all the synthesised derivatives was determined by an enzymatic tyrosinase inhibition assay based on their ability to inhibit the substrate, L-tyrosine, from binding to the tyrosinase enzyme. […] Test samples were dissolved in DMSO at a concentration of 10 mM and then diluted to different concentrations with phosphate buffer (0.1 M, pH 6.8). Each well contained 40 µL of the sample with 80 µL of phosphate buffer solution (0.1 M, pH 6.8), 40 µL of tyrosinase enzyme (100 units/mL), and 40 µL L-tyrosine (2.5 mM). The mixture was incubated for 30 min at room temperature, and absorbance was measured at 490 nm. Each sample was accompanied by a sample blank containing all components except tyrosinase. […] The percentage of tyrosinase inhibition was calculated as follows: ((ΔAcontrol – ΔAsample)/ΔAcontrol) × 100. IC50 values denoted the sample concentration required to inhibit 50% tyrosinase activity (Table S1).

[1] = DPPH free radical scavenging assay; settings: for Percent Scavenging (DPPH): 1 mM; for IC50: N.A. = No Activity, > 1000 = not biologically relevant, read-out: IC50 Value, DPPH antioxidant activity (Table S4)
Experimental: An initial screen was done of all 25 derivatives at a concentration of 1 mM. […] Methanol was used as the diluent, and 100 µL of DPPH (200 µM; Sigma-Aldrich, St. Louis, MO) was added to each well. […] The scavenging capacity (SC) was calculated as SC% = ((ΔAcontrol – ΔAsample)/ΔAcontrol) × 100%, where ΔAcontrol was the absorbance of the reagent blank, and ΔAsample was the absorbance of the test samples. The control contained all reagents except the compounds, and all tests were performed in triplicate. Quercetin served as a positive control. The DPPH methanolic solution (1 mL) mixed with DMSO (5 µL) served as a negative control.

SCC-12 = test: MTT antiproliferative/cytotoxicity assay, SCC-12; format: cell-based, human; settings: for IC50: non-melanoma, MTT, 48 h, read-out: IC50 SCC-12; for selectivity index (SI) SCC-12: IC50 HaCaT divided by IC50 SCC-12
Experimental: (§1) Human-derived GFP-expressing melanoma A375 and epidermoid carcinoma A431 cell lines were purchased from Angio-Proteomie (Boston, MA). Human melanoma carcinoma SK-MEL-28 and human immortalised keratinocytes (HaCaT) cell lines were acquired from American Type Culture Collection (ATCC; Manassas, VA). […] The growth media of incubated cells were changed every 2–3 days until they attained 70–80% confluence, after which they were sub-cultured for experiments and re-passaging. DMSO was used as the vehicle to prepare a 10 mM stock solution of the test compounds.
(§2) Stock solutions (10 mM) were prepared by dissolving each compound to be screened in DMSO.

A375 = test: MTT antiproliferative/cytotoxicity assay, A375; format: cell-based, human; settings: melanoma, MTT, 48 h, read-out: IC50 A375
Experimental: (§3) Human-derived GFP-expressing melanoma A375 and epidermoid carcinoma A431 cell lines were purchased from Angio-Proteomie (Boston, MA). Human melanoma carcinoma SK-MEL-28 and human immortalised keratinocytes (HaCaT) cell lines were acquired from American Type Culture Collection (ATCC; Manassas, VA). Human cutaneous SCC cell line SCC-12[192] was generously provided by Dr. James G. Rheinwald to Dr. Tatiana Efimova. Except SK-MEL-28, which was cultured in an RPMI-1640 medium supplemented with 5% FBS, all other human immortalised cell lines were grown and maintained in DMEM containing varying percentages of FBS; 5% FBS for A431, SCC-12, and HaCaT lines, and 10% FBS for A375. All culture media were routinely supplemented with 1% PEST 100X (100 U/mL penicillin, 100 μg/mL streptomycin), and cells were cultured in incubators maintained at 37 °C under an atmosphere of 95% humidity, 20% O2, and 5% CO2. The growth media of incubated cells were changed every 2–3 days until they attained 70–80% confluence, after which they were sub-cultured for experiments and re-passaging. DMSO was used as the vehicle to prepare a 10 mM stock solution of the test compounds.
(§4) Stock solutions (10 mM) were prepared by dissolving each compound to be screened in DMSO. From these stock solutions, escalating concentrations were prepared using the corresponding cell growth media as a diluent, and the cells (65–75% confluent) were treated with (0–40 µM) or without the drug in sext- to octuplicate and incubated for 48 h. All treatment protocols and controls were prepared as previously described.
(§5) The potency and cytotoxicity of the test compounds against two cutaneous melanoma (A375 and SK-MEL-28) and two non-melanoma (A431 and SCC-12) SC cell lines in addition to a control immortalised normal human epidermal keratinocytes (HaCaT) cell line were assessed by MTT assay as previously described.

HaCaT = test: MTT cytotoxicity assay, noncancerous HaCaT keratinocytes; format: cell-based, human; settings: Homo sapiens, HaCaT; control noncancerous keratinocytes, MTT, 48 h; read-out: IC50 HaCaT
Experimental: as §3, §4, §5

SK-MEL-28 = test: MTT antiproliferative/cytotoxicity assay, SK-MEL-28; format: cell-based, human; settings: melanoma, MTT, 48 h, read-out: IC50 SKMEL-28
Experimental: as §3, §4, §5

GFP-A431 = test: MTT antiproliferative/cytotoxicity assay, A431; format: cell-based, human; settings: for IC50: non-melanoma, MTT, 48 h, read-out: IC50 GFP-A431; for selectivity index (SI) A431: IC50 HaCaT divided by IC50 A431
Experimental: as §1, §2

[2] = 500 µM, single-concentration screen, read-out: % Inhibition of tyrosinase
[3] = > 500 = not biologically relevant, read-out: IC50 Value, mushroom tyrosinase inhibition (Table S1)

T1 sequence (C7FF04 1-392 limits assumed): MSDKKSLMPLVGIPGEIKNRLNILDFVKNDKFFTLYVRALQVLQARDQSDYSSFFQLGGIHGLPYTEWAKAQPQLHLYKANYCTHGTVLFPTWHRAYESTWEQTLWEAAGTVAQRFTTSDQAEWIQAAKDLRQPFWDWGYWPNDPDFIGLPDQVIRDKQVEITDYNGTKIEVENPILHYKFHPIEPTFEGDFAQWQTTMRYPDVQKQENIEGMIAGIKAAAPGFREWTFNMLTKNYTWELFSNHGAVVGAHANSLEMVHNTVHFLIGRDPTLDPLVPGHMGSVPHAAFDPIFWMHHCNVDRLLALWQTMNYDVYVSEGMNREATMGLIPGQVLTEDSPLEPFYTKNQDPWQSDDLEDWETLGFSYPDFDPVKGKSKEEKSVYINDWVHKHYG

Row | SMILES | inhibition at 500 µM (mushroom tyrosinase; [2]) | IC50 (mushroom tyrosinase; [3]) | Percent Scavenging (DPPH) [1] | IC50 (SCC-12; Homo sapiens, SCC12, 48 h) | IC50 (A375; Homo sapiens, A-375, 48 h) | IC50 (HaCaT) | IC50 (SK-MEL-28; Homo sapiens, SK-MEL-28, 48 h) | IC50 (GFP-A431; Homo sapiens, A-431, 48 h) | IC50 [1] | selectivity index (SI) SCC-12 (SCC-12) | selectivity index (SI) A431 (GFP-A431) | also measured
1 | Cc1onc2c1CCc1ccccc1-2 [P12, 3-Methyl-4,5-dihydronaphtho[1,2-c]isoxazole] | 69.7 ± 5% | 336 µM | -1.13% | 32.6 ± 2.1 µM | 73.5 ± 3.8 µM | 32.6 ± 2.4 µM | 24 ± 2 µM | 55.5 ± 3.5 µM | – | – | – | –
2 | c1ccc(-c2cc(-c3ccccc3)n(-c3ccccc3)n2)cc1 [P13, 1,3,5-Triphenyl-1H-pyrazole] | 7.66% | > 500 µM | 19.44% | 52.8 ± 2.2 µM | 93.4 ± 6.4 µM | 91.6 ± 4.1 µM | 154 ± 2.9 µM | 181 ± 4.7 µM | > 1000 µM | – | – | –
3 | Cc1cc(-c2ccccc2)n(-c2ccccc2)n1 [P14, 3-Methyl-1,5-diphenyl-1H-pyrazole] | 97.4 ± 0.2% | – | -23.93% | 42.5 ± 2.8 µM | 25.8 ± 2.7 µM | 35.1 ± 2.8 µM | 33.3 ± 1.7 µM | 17.8 ± 0.5 µM | – | 0.8 | 2.0 | IC50 (mushroom tyrosinase; L-tyrosine substrate, read-out: IC50 tyrosinase inhibition): 15.9 µM; DPPH antioxidant activity (in words) [1]: inactive
4 | FC(F)(F)c1cc(-c2ccccc2)n(-c2ccccc2)n1 [P15, 1,5-Diphenyl-3-(trifluoromethyl)-1H-pyrazole] | 32.2% | > 500 µM | -23.36% | 98 ± 5.5 µM | 58.5 ± 3.4 µM | 53.7 ± 3.1 µM | 36 ± 3.9 µM | 42.9 ± 1 µM | – | – | – | –
5 | Cc1cc(-c2ccccc2)n(-c2ccc(Br)cc2)n1 [P16, 1-(4-Bromophenyl)-3-methyl-5-phenyl-1H-pyrazole] | 17.3% | > 500 µM | -24.61% | 19.6 ± 2 µM | 46 ± 1 µM | 54.2 ± 3.6 µM | 39.1 ± 2.3 µM | 21 ± 1.3 µM | – | 2.8 | 2.6 | –
6 | Cc1cc(-c2ccccc2)n(-c2ccc(Cl)cc2)n1 [P17, 1-(4-Chlorophenyl)-3-methyl-5-phenyl-1H-pyrazole] | 95.6 ± 1.1% | 165 µM | -23.30% | 23.4 ± 1.7 µM | 44.5 ± 3 µM | 72.4 ± 6 µM | 34.2 ± 3.9 µM | 19.7 ± 0.8 µM | – | 3.1 | 3.7 | –
7 | COc1ccc(-n2nc(C)cc2-c2ccccc2)cc1 [P18, 1-(4-Methoxyphenyl)-3-methyl-5-phenyl-1H-pyrazole] | 92.2 ± 3.7% | 156 µM | -24.28% | 21.9 ± 0.2 µM | 48 ± 2.1 µM | 49.6 ± 1.5 µM | 19.3 ± 2.4 µM | 25.9 ± 0.9 µM | – | 2.3 | 2.0 | –
8 | CC1=NN(c2ccccc2)C(=O)C1(C)O (stereo not shown) [P20] | 39.7% | > 500 µM | -20.03% | 57.3 ± 0.2 µM | 110 ± 15.4 µM | 47.7 ± 2.7 µM | 50 ± 4.3 µM | 120 ± 2.6 µM | – | – | – | DPPH antioxidant activity (in words) [1]: no appreciable antioxidant activity
9 | O=C1CC(c2ccccc2)=NN1c1ccccc1 [P21] | – | – | 73.25% | – | 67.8 ± 2.3 µM | 50.1 ± 6.5 µM | – | – | 354 µM | – | – | IC50 (mushroom tyrosinase; IC50 Value, mushroom tyrosinase inhibition (Table S1), > 500 = not biologically relevant): 295 µM; inhibition at 500 µM (mushroom tyrosinase; read-out: % Inhibition of tyrosinase, 500 µM, single-concentration screen): 88.9 ± 0.4%; IC50 (SCC-12; Homo sapiens, SCC12): 37.8 ± 3.2 µM; IC50 (SK-MEL-28; Homo sapiens, SK-MEL-28): 42.7 ± 4 µM; IC50 (GFP-A431; Homo sapiens, A-431): 58.6 ± 2.3 µM
10 | O=C1CC(c2ccc(Br)cc2)=NN1c1ccc(Br)cc1 [P22] | 46.9% | > 500 µM | 77.86% | 19 µM | 29 µM | 47.6 ± 1.6 µM | 31 µM | 13 µM | 276 µM | 2.6 | 3.8 | IC50 (SCC-12): 18.7 ± 1.4 µM; IC50 (A375): 28.7 ± 1.2 µM; IC50 (SK-MEL-28): 31.3 ± 2.4 µM; IC50 (GFP-A431): 12.6 ± 1.6 µM
11 | O=C1CC(c2ccc(Br)cc2)=NN1c1ccc(C(F)(F)F)cc1 [P23] | 37.6% | > 500 µM | 77.61% | 21.7 ± 1.9 µM | 31.2 ± 1.5 µM | 40.5 ± 1.5 µM | 27.4 ± 2.3 µM | 23.9 ± 1 µM | 196 µM | 1.9 | 1.7 | –
12 | O=C1CC(c2ccc(Br)cc2)=NN1c1ccccc1 [P24] | 35.2% | > 500 µM | 75.14% | 141 ± 3.9 µM | 56.4 ± 1.7 µM | 60.4 ± 3.2 µM | 54.1 ± 1.9 µM | 18.6 ± 0.9 µM | 444 µM | 0.4 | 3.3 | –
